Data as given in US20140364434A1, “Biomarkers for Prediction of Response to PARP Inhibition in Breast Cancer” (The Regents of the University of Califonia, priority 2011, published 2014).
Read-outs that look alike come from different tables or passages of the source.

Columns and labels:
[1] = test system: hereditary BRCA1/2-related breast cancer; settings: cited from earlier work
[2] = test system: panel of 22 breast cancer cell lines; experiment: growth inhibition assay, whole panel (SF50); format: cell-based, human
Description: (§1) Cells were exposed continuously to the inhibitor, and medium and inhibitor were replaced every four days. After 15 days, cells were fixed and stained with sulphorhodamine-B (Sigma, St. Louis, USA) and a colorimetric assay performed as described previously. Surviving fractions (SFs) were calculated and drug sensitivity curves determined with the Four Parameter Logistic Regression model as previously described. […] Nature 2005, 434(7035):917-921, Edwards S L, Brough R, Lord […], Boyd […], Ashworth A: […] Nature 2008, 451(7182):1111-1115]. […] Oncogene 30 (29):3222-3233. doi:10.1038/one.2011.421). A detailed description of the availability and preprocessing of all molecular data sets is provided below and [[…], et al., (2012) Subtype and pathway specific responses to anticancer compounds in breast cancer. […] These cells mirror many of the transcriptional and genomic characteristics of primary breast tumors and have been used to model responses to a large number of experimental and approved therapeutic compounds [Neve R M, Chin […], Clark L, Bayani N, Coppe J P, Tong F et al: A collection of breast cancer cell lines for the study of functionally distinct cancer subtypes. […] (2012) Subtype and pathway specific responses to anticancer compounds in breast cancer. […] Cell lines were divided into a group of 15 resistant and 7 sensitive cell lines, based on an SF50 threshold of 1 μM. […] Surviving fractions (SFs) were calculated and drug sensitivity curves determined with the Four Parameter Logistic Regression model as previously described [Farmer H, McCabe N, Lord C J, Tutt A N, Johnson D A, Richardson […], Dillon […], Knights C et al: Targeting the DNA repair defect in BRCA mutant cells as a therapeutic strategy. Nature 2005, 434(7035):917-921].\

[3] = test system: carriers of a BRCA1/2 mutation and patients without known BRCA mutations; settings: cited from earlier work
[4] = test system: sporadic triple negative breast cancer; settings: cited from earlier work
HCC1428 = experiment: growth inhibition assay, sensitivity to olaparib (SF50); format: cell-based, human
Description: as §1

MDAMB231 = experiment: as above; format: cell-based, human
Description: as §1

HS578T = experiment: as above; format: cell-based, human
Description: as §1

BT474 = experiment: as above; format: cell-based, human
Description: as §1

MDAMB453 = experiment: as above; format: cell-based, human
Description: as §1

MDAMB468 = experiment: as above; format: cell-based, human
Description: as §1

HCC38 = experiment: as above; format: cell-based, human
Description: as §1

HCC1143 = experiment: as above; format: cell-based, human
Description: as §1

HCC70 = experiment: as above; format: cell-based, human
Description: as §1

SUM149PT = experiment: as above; format: cell-based, human
Description: as §1

HCC1954 = experiment: as above; format: cell-based, human
Description: as §1

SUM159PT = experiment: as above; format: cell-based, human
Description: as §1

SKBR3 = experiment: as above; format: cell-based, human
Description: as §1

HCC202 = experiment: as above; format: cell-based, human
Description: as §1

T47D = experiment: as above; format: cell-based, human
Description: as §1

MDAMB157 = experiment: as above; format: cell-based, human
Description: as §1

BT20 = experiment: as above; format: cell-based, human
Description: as §1

MCF7 = experiment: as above; format: cell-based, human
Description: as §1

CAMA1 = experiment: as above; format: cell-based, human
Description: as §1

BT549 = experiment: as above; format: cell-based, human
Description: as §1

MDAMB134VI = experiment: as above; format: cell-based, human
Description: as §1

MDAMB436 = experiment: as above; format: cell-based, human
Description: as §1

[5] = test system: BRCA1/2 mutation carriers; settings: monotherapy; BRCA1/2 mutation carriers who had previously received several courses of chemotherapy; cited from earlier work
[6] = test system: metastatic triple negative breast cancer; settings: cited from earlier work
[7] = heavily pre-treated sporadic triple negative breast cancer
[8] = read-out: Olaparib SF50, continuous exposure 15 days, sulphorhodamine-B
[9] = read-out: olaparib SF50, Table 9

For `NC(=O)c1cccc2cn(-c3ccc([C@@H]4CCCNC4)cc3)nc12` [MK-4827], the “efficacy as single agent” value [1] is listed as “efficacious”.

For `O=C(c1cc(Cc2n[nH]c(=O)c3ccccc23)ccc1F)N1CCN(C(=O)C2CC2)CC1` [Olaparib], the “efficacy as single agent” value [1] is listed as “efficacious”, the IC50 ([2]; 5 cell lines of the panel, read-out: SF50 not reached at the maximum treatment concentration) is listed as over 50 µM and the IC50 ([2]; read-out: concentration of olaparib needed to reduce survival to 50% (SF50), lower end of the range, lowest SF50 among 22 breast cancer cell lines) is listed as 0.00044 µM. The IC50 ([2]; read-out: concentration of olaparib needed to reduce survival to 50% (SF50), upper end of the range, highest SF50 reached among 22 breast cancer cell lines) was 32 µM, the “antitumor activity, phase 1 trial” value ([3]; BRCA1/2 mutation carriers vs patients without known BRCA mutations) was “has antitumor activity for the majority of carriers of a BRCA1/2 mutation but not for patients without known BRCA mutations” and the “adverse effects, phase 1 trial” value ([3]; compared with conventional chemotherapy) was “only a few of the adverse effects of conventional chemotherapy”. The “results as single agent” value [4, 7] was “negative results”, the “response to monotherapy, phase 2 trial” value ([4]; olaparib monotherapy, triple negative breast cancer patients) was “largely did not respond” and the IC50 (HCC1428; [8]) was over 50 µM. It also gave an IC50 (HCC1428; [9]) of over 50 µM, an IC50 (MDAMB231; [8]) of 30 µM and an IC50 (MDAMB231; [9]) of 30 µM. It also gave an IC50 (HS578T; [8]) of 6.55 µM, an IC50 (HS578T; [9]) of 6.55 µM and an IC50 (BT474; [8]) of 32 µM. The IC50 (BT474; [9]) was 32 µM, the IC50 (MDAMB453; [8]) was 0.00915 µM and the IC50 (MDAMB453; [9]) was 0.00915 µM. It also gave an IC50 (MDAMB468; [8]) of 0.514 µM, an IC50 (MDAMB468; [9]) of 0.514 µM and an IC50 (HCC38; [8]) of over 50 µM. The IC50 (HCC38; [9]) was over 50 µM, the IC50 (HCC1143; [8]) was 0.0211 µM and the IC50 (HCC1143; [9]) was 0.0211 µM. The IC50 (HCC70; [8]) was 0.655 µM, the IC50 (HCC70; [9]) was 0.655 µM and the IC50 (SUM149PT; [8]) was 0.0161 µM. It also gave an IC50 (SUM149PT; [9]) of 0.0161 µM, an IC50 (HCC1954; [8]) of 15.5 µM and an IC50 (HCC1954; [9]) of 15.5 µM. It also gave an IC50 (SUM159PT; [8]) of 16.3 µM, an IC50 (SUM159PT; [9]) of 16.3 µM and an IC50 (SKBR3; [8]) of over 50 µM. It also gave an IC50 (SKBR3; [9]) of over 50 µM, an IC50 (HCC202; [8]) of 0.413 µM and an IC50 (HCC202; [9]) of 0.413 µM. For the same molecule, the IC50 (T47D; [8]) was 19.9 µM, the IC50 (T47D; [9]) was 19.9 µM and the IC50 (MDAMB157; [8]) was 2.41 µM. The IC50 (MDAMB157; [9]) was 2.41 µM, the IC50 (BT20; [8]) was over 50 µM and the IC50 (BT20; [9]) was over 50 µM. For the same molecule, the IC50 (MCF7; [8]) was 14.7 µM, the IC50 (MCF7; [9]) was 14.7 µM and the IC50 (CAMA1; [8]) was over 50 µM. The IC50 (CAMA1; [9]) was over 50 µM, the IC50 (BT549; [8]) was 21.4 µM and the IC50 (BT549; [9]) was 21.4 µM. It also gave an IC50 (MDAMB134VI; [8]) of 30.9 µM, an IC50 (MDAMB134VI; [9]) of 30.9 µM and an IC50 (MDAMB436; [8]) of 0.00044 µM. The IC50 (MDAMB436; [9]) was 0.00044 µM and the objective response rates [5] was 41%.

In the case of `C[C@]1(c2nc3c(C(N)=O)cccc3[nH]2)CCCN1` [ABT-888], the “efficacy combined with DNA-damaging agent temozolomide” value [1] is listed as “efficacious” and the “activity of the combination with temozolomide” value [4, 7] is listed as “no evidence of activity”.

For `NC(=O)c1ccc(I)c([N+](=O)[O-])c1` [BSI-201], the “survival, phase II clinical trial” value ([6]; combined with gemcitabine/carboplatin chemotherapy) is given as “dramatic survival advantage” and the “confirmation in randomized, open-label phase III study” value ([6]; combined with gemcitabine/carboplatin) is given as “could not be confirmed”.
